Laboratory results as given in patent US20250228855A1, “PYRAZINAMIDE COMPOUNDS” (The General Hospital Corporation, priority 2022, published 2025).
Counter-ions that a name gives are not always drawn. Like-named read-outs stand apart in the source and are kept apart here. Marks after values point to notes of the source that are not given here.

Key:
PfcProRS = PfcProRS (Plasmodium falciparum, UniProt Q8I5R7); assay: TR-FRET ligand displacement assay with tracer MAT379, PfcProRS; type: binding
[1] = test system: halofuginone-induced (HFG-induced) P. falciparum; assay: P. falciparum asexual blood stage growth assay, halofuginone-induced parasites; settings: Plasmodium falciparum
Protocol: (§1) Asexual blood stage (ABS) P. falciparum parasites were treated with test compounds at varying concentrations for 72 h, followed by quantification of parasite growth by SYBR Green staining.
(§2) P. falciparum Asexual Blood Stage Growth Assay: This assay was performed as previously described.

P. falciparum Dd2-2D4 = assay: P. falciparum asexual blood stage growth assay, wild-type Dd2-2D4; settings: for EC50: Plasmodium falciparum
Protocol: as §1, §2

HsProRS = target: T1, HsProRS (Homo sapiens, UniProt P07814); assay: TR-FRET ligand displacement assay with tracer MAT379, HsProRS; type: binding
T1 sequence (P07814 1007-1512 limits assumed): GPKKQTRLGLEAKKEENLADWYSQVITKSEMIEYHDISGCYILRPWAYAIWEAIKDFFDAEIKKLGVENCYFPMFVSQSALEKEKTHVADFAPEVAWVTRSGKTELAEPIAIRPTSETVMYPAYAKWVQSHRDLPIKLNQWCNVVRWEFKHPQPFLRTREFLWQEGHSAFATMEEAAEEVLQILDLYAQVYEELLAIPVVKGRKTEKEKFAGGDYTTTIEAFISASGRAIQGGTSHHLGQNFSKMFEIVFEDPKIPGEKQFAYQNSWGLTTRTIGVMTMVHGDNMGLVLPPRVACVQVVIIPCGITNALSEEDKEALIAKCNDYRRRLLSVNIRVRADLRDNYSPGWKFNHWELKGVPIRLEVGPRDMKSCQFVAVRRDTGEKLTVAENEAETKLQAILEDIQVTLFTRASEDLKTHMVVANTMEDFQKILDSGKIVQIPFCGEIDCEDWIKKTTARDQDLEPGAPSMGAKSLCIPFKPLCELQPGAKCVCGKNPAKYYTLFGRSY

[2] = PfcProRS (KD [nM]) +proline, 100 μM Pro
[3] = no proline, no ATP, read-out: PfcProRS (KD [nM]) −
[4] = DD2, 72 h, read-out: Dd2 (EC50 [nM]) Halofuginone-induced
[5] = no proline, no ATP, read-out: HsProRS (KD [nM]) −
[6] = read-out: HsProRS (KD [nM]) +proline, 100 μM Pro
[7] = read-out: EC50 in halofuginone-induced parasites
[8] = DD2, 72 h, read-out: Dd2 (EC50 [nM]) wt
[9] = DD2, read-out: EC50 against Dd2-2D4 wildtype parasites
[10] = absence of proline, read-out: KD for PfcProRS
[11] = KD for HsProRS in presence of 100 μM proline, 100 μM proline

Sequence of PfcProRS (Q8I5R7 whole entry): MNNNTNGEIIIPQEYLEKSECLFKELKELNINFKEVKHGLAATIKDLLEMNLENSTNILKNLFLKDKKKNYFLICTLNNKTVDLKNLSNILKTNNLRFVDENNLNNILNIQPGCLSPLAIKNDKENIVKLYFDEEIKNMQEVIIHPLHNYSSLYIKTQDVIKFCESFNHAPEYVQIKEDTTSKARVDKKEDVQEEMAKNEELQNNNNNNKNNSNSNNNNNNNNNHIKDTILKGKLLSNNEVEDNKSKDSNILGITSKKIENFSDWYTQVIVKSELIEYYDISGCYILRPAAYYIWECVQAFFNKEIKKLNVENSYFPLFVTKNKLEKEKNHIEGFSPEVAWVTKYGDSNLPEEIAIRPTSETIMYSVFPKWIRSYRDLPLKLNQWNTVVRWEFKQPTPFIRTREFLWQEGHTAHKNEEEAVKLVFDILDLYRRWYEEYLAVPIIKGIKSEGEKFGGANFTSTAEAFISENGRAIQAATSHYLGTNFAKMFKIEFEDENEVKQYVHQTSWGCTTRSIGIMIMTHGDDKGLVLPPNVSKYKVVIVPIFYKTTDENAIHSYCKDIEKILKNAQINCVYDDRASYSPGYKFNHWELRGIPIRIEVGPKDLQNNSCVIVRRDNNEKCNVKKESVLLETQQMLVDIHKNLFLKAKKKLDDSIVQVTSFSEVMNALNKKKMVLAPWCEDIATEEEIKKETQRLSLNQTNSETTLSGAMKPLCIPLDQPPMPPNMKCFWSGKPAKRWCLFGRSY

Compound	Kd (PfcProRS; [2]) [nM]	Kd (PfcProRS; [3]) [nM]	EC50 [1, 4] [nM]	Kd (HsProRS; [5]) [nM]	Kd (HsProRS; [6]) [nM]	EC50 [1, 7] [nM]	EC50 (P. falciparum Dd2-2D4; [8]) [nM]	EC50 (P. falciparum Dd2-2D4; [9]) [nM]	also measured
CC(C)(C)OC(=O)N1CCC[C@H](OC(=O)NS(=O)(=O)N2CCN(C(=O)Nc3nccnc3C(=O)NC3Cc4ccccc4C3)CC2)[C@H]1CC(=O)Cn1cnc2cc(Br)c(Cl)cc2c1=O (relative stereo) [Compound 37, tert-butyl trans-2-(3-(7-bromo-6-chloro-4-oxoquinazolin-3(4H)-yl)-2-oxopropyl)-3-((((4-((3-((2,3-dihydro-1H-inden-2-yl)carbamoyl)pyrazin-2-yl)carbamoyl)piperazin-1-yl)sulfonyl)carbamoyl)oxy)piperidine-1-carboxylate]	175	246	7150						percent growth at 10 μM (Dd2 wt) (P. falciparum Dd2-2D4; 10 μM, compound had <50% growth inhibition): 59% †
O=C(NC1Cc2ccccc2C1)c1nccnc1NC(=O)C1CCCCC1 [Compound 2, 3-(cyclohexanecarboxamido)-N-(2,3-dihydro-1H-inden-2-yl)pyrazine-2-carboxamide, reference compound]	7.17	437	1250	371	2.16	1250	595	595	Kd (PfcProRS; PfcProRS (KD [nM]) +ATP, 500 μM ATP): 291 nM; Kd (HsProRS; read-out: HsProRS (KD [nM]) +ATP, +ATP): 954 nM
CC1(C(=O)Nc2nccnc2C(=O)NC2Cc3ccccc3C2)CCCCC1 [Compound 4, N-(2,3-dihydro-1H-inden-2-yl)-3-(1-methylcyclohexane-1-carboxamido)pyrazine-2-carboxamide]	3.42	275	540	221	2.55	540	180	180	
CC(C)(C)OC(=O)N[C@H]1CC[C@@H](C(=O)Nc2nccnc2C(=O)NC2Cc3ccccc3C2)CC1 [Compound 6, tert-butyl ((1s,4s)-4-((3-((2,3-dihydro-1H-inden-2-yl)carbamoyl)pyrazin-2-yl)carbamoyl)cyclohexyl)carbamate]	26.3	31.5	7930	56.8	82.7		508		
CC(C)(C)OC(=O)NCC1CCN(C(=O)Nc2nccnc2C(=O)NC2Cc3ccccc3C2)CC1 [Compound 9, tert-butyl ((1-((3-((2,3-dihydro-1H-inden-2-yl)carbamoyl)pyrazin-2-yl)carbamoyl)piperidin-4-yl)methyl)carbamate]	353	382	7530	2510			6570		Kd (HsProRS): > 5090 nM
O=C(NC1Cc2ccccc2C1)c1nccnc1NC(=O)N1CCC(CCO)CC1 [Compound 12, N-(2,3-dihydro-1H-inden-2-yl)-3-(4-(2-hydroxyethyl)piperidine-1-carboxamido)pyrazine-2-carboxamide]	339	515	6350	687	150		153		
O=C(NC1Cc2ccccc2C1)c1nccnc1NC(=O)C1(O)CCCCC1 [Compound 15, N-(2,3-dihydro-1H-inden-2-yl)-3-(1-hydroxycyclohexane-1-carboxamido)pyrazine-2-carboxamide]			3510	2700	21.8		1500		
C[C@@H]1CCC[C@H](C)N1C(=O)Nc1nccnc1C(=O)NC1Cc2ccccc2C1 [Compound 19, N-(2,3-dihydro-1H-inden-2-yl)-3-(cis-2,6-dimethylpiperidine-1-carboxamido)pyrazine-2-carboxamide]	1180	> 2860	8590	> 8720	1320		> 10000		
O=C(NC1Cc2ccccc2C1)c1nccnc1NC(=O)C1CCC1 [Compound 20, 3-(cyclobutanecarboxamido)-N-(2,3-dihydro-1H-inden-2-yl)pyrazine-2-carboxamide]	100	1260	6010	738	13.2		3740		
CC(C)(C)OC(=O)NCCCCCC(=O)NC1CCN(C(=O)Nc2nccnc2C(=O)NC2Cc3ccccc3C2)CC1 [Compound 41, tert-butyl (6-((1-((3-((2,3-dihydro-1H-inden-2-yl)carbamoyl)pyrazin-2-yl)carbamoyl)piperidin-4-yl)amino)-6-oxohexyl)carbamate]	182	227	6910	139	561		2110		
NCCCCCC(=O)NC1CCN(C(=O)Nc2nccnc2C(=O)NC2Cc3ccccc3C2)CC1 [Compound 42, 3-(4-(6-aminohexanamido)piperidine-1-carboxamido)-N-(2,3-dihydro-1H-inden-2-yl)pyrazine-2-carboxamide dihydrochloride]	295	433	9080		780		3120		Kd (HsProRS; read-out: HsProRS (KD [nM]) −): 674 nM
CC(C)(C)OC(=O)NCCCCCC(=O)NCC1CCN(C(=O)Nc2nccnc2C(=O)NC2Cc3ccccc3C2)CC1 [Compound 43, tert-butyl (6-(((1-((3-((2,3-dihydro-1H-inden-2-yl)carbamoyl)pyrazin-2-yl)carbamoyl)piperidin-4-yl)methyl)amino)-6-oxohexyl)carbamate]	320	375	5090	611	2280		3330		
NCCCCCC(=O)NCC1CCN(C(=O)Nc2nccnc2C(=O)NC2Cc3ccccc3C2)CC1 [Compound 44, 3-(4-((6-aminohexanamido)methyl)piperidine-1-carboxamido)-N-(2,3-dihydro-1H-inden-2-yl)pyrazine-2-carboxamide dihydrochloride]	270	321	8910		330		> 10000		Kd (HsProRS; read-out: HsProRS (KD [nM]) −): 1570 nM
O=C(NS(=O)(=O)N1CCN(C(=O)Nc2nccnc2C(=O)NC2Cc3ccccc3C2)CC1)O[C@H]1CCCNC1 [MAT445, (S)-piperidin-3-yl ((4-((3-((2,3-dihydro-1H-inden-2-yl)carbamoyl)pyrazin-2-yl)carbamoyl)piperazin-1-yl)sulfonyl)carbamate]			7620			> 10000	1160	1160	Kd (PfcProRS; [10]): 1110 nM
O=C(NS(=O)(=O)N1CCN(C(=O)Nc2nccnc2C(=O)NC2Cc3ccccc3C2)CC1)O[C@@H]1CCCNC1 [MAT447, (R)-piperidin-3-yl ((4-((3-((2,3-dihydro-1H-inden-2-yl)carbamoyl)pyrazin-2-yl)carbamoyl)piperazin-1-yl)sulfonyl)carbamate]			6990			> 10000	6250	6250	Kd (PfcProRS; [10]): 2460 nM
O=C(NS(=O)(=O)N1CCN(C(=O)Nc2nccnc2C(=O)NC2Cc3ccccc3C2)CC1)OC[C@@H]1CCCN1 [MAT457, (S)-pyrrolidin-2-ylmethyl ((4-((3-((2,3-dihydro-1H-inden-2-yl)carbamoyl)pyrazin-2-yl)carbamoyl)piperazin-1-yl)sulfonyl)carbamate hydrochloride]	118		6570			> 10000	968	968	Kd (PfcProRS; [10]): 152 nM; Kd (HsProRS; KD for HsProRS): 9.71 nM; Kd (HsProRS; [11]): 16.3 nM
O=C(NS(=O)(=O)N1CCN(C(=O)Nc2nccnc2C(=O)NC2Cc3ccccc3C2)CC1)OC[C@H]1CCCN1 [MAT459, (R)-pyrrolidin-2-ylmethyl ((4-((3-((2,3-dihydro-1H-inden-2-yl)carbamoyl)pyrazin-2-yl)carbamoyl)piperazin-1-yl)sulfonyl)carbamate]	552		7080			> 10000	4620	4620	Kd (PfcProRS; [10]): 736 nM; Kd (HsProRS; [11]): 245 nM; Kd (HsProRS; absence of proline, read-out: KD for HsProRS): 105 nM
O=C(CCCCCNC(=S)Nc1ccccc1)NC1CCN(C(=O)Nc2nccnc2C(=O)NC2Cc3ccccc3C2)CC1 [MAT482]		78.3	5540	516	1360		2720		Kd (PfcProRS; read-out: PfcProRS (KD [nM]) +proline, 100 μM Pro): 61.6 nM
Nc1ncnc2c1ncn2[C@@H]1O[C@H](COS(=O)(=O)NC(=O)[C@@H]2CCCN2)[C@@H](O)[C@H]1O [ProSA (25), 5′-O—[N-(L-Prolyl)-sulfamoyl]adenosine, reference compound]			137				151		
